From paper PMC5954133, “Functional Characterization of a Small Alarmone Hydrolase in Corynebacterium glutamicum” (Frontiers in Microbiology, 2018)

Target: T1, RelSCg (Corynebacterium glutamicum, UniProt Q8NNR8)
T1 construct: gene Cgl2119; full-length; expressed in E. coli ER2566
T1 sequence (Q8NNR8 1-341): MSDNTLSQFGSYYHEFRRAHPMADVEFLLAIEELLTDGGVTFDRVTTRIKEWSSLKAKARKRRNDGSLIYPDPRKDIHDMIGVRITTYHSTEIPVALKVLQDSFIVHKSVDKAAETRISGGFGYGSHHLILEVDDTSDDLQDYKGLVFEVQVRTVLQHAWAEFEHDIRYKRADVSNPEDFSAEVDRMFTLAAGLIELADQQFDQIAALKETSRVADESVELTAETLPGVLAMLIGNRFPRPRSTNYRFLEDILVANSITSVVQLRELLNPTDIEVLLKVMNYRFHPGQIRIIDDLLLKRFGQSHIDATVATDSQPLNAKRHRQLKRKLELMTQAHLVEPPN
Experiment: preparative pyrophosphorylation, product identified by HPLC-MS
Format: biochemical
Details: 12 mM ATP, 10 mM MgCl2, 50 mM Tris-HCl pH 8, 16 h

SMILES	preparative pyrophosphorylation, product identified by HPLC-MS
Nc1nc2c(ncn2[C@@H]2O[C@H](COP(=O)(O)OP(=O)(O)O)[C@@H](O)[C@H]2O)c(=O)[nH]1 [GDP]	produced by RelSCg-catalyzed pyrophosphorylation of GMP, GDP or GTP
Nc1nc2c(ncn2[C@@H]2O[C@H](COP(=O)(O)O)[C@@H](O)[C@H]2O)c(=O)[nH]1 [GMP]	produced by RelSCg-catalyzed pyrophosphorylation of GMP, GDP or GTP
